# Measurements taken from EPA's CvTdb concentration-time database.
# Key:
# Assay in all cases: concentration in plasma after dosing
# [1] = system: Rat; conditions: dosed: 1-Chloro-2-propanol, 7.5 mg/kg, oral, Male, F344
# [2] = system: Rat; conditions: dosed: 1-Chloro-2-propanol, 15 mg/kg, oral, Female, Harlan Sprague-Dawley
# [3] = system: Rat; conditions: dosed: 1-Chloro-2-propanol, oral
# [4] = system: Rat; conditions: dosed: 1-Chloro-2-propanol, 7.5 mg/kg, oral, Female, F344
# [5] = system: Rat; conditions: dosed: 1-Chloro-2-propanol, 15 mg/kg, oral, Female, Harlan Sprague-Dawley; remark: listed apart in the source
# [6] = system: Rat; conditions: dosed: 1-Chloro-2-propanol, 7.5 mg/kg, oral, Female, F344; remark: listed apart in the source
# [7] = system: Rat; conditions: dosed: 1-Chloro-2-propanol, 15 mg/kg, oral, Female, F344
# [8] = system: Rat; conditions: 40 min; dosed: 1-Chloro-2-propanol; 7.5 mg/kg; oral; Male; F344
# [9] = system: Rat; conditions: dosed: 1-Chloro-2-propanol, 7.5 mg/kg, oral, Male, F344; remark: listed apart in the source
# [10] = system: Rat; conditions: 20 min; dosed: 1-Chloro-2-propanol; 7.5 mg/kg; oral; Female; F344
# [11] = system: Rat; conditions: dosed: 1-Chloro-2-propanol, 15 mg/kg, oral, Female, Harlan Sprague-Dawley; remark: listed apart in the source
# [12] = system: Rat; conditions: dosed: 1-Chloro-2-propanol, 15 mg/kg, oral, Male, F344
# [13] = system: Rat; conditions: 0.5 h; dosed: 1-Chloro-2-propanol; 7.5 mg/kg; oral; Female; F344
# [14] = system: Rat; conditions: dosed: 1-Chloro-2-propanol, 15 mg/kg, oral, Male, F344; remark: listed apart in the source
# [15] = system: Rat; conditions: dosed: 1-Chloro-2-propanol, 7.5 mg/kg, oral, Female, F344; remark: listed apart in the source
# [16] = system: Rat; conditions: dosed: 1-Chloro-2-propanol, 15 mg/kg, oral, Female, Harlan Sprague-Dawley; remark: listed apart in the source
# [17] = system: Rat; conditions: dosed: 1-Chloro-2-propanol, 7.5 mg/kg, oral, Female, F344; remark: listed apart in the source
# [18] = system: Rat; conditions: dosed: 1-Chloro-2-propanol, 7.5 mg/kg, oral, Male, F344; remark: listed apart in the source
# [19] = system: Rat; conditions: dosed: 1-Chloro-2-propanol, 15 mg/kg, oral, Female, F344; remark: listed apart in the source
# [20] = system: Rat; conditions: 10 min; dosed: 1-Chloro-2-propanol; 7.5 mg/kg; oral; Female; F344
# [21] = system: Rat; conditions: dosed: 1-Chloro-2-propanol, 15 mg/kg, oral, Female, F344; remark: listed apart in the source
# [22] = system: Rat; conditions: dosed: 1-Chloro-2-propanol, 7.5 mg/kg, oral, Male, F344; remark: listed apart in the source
# [23] = system: Rat; conditions: 0.5 h; dosed: 1-Chloro-2-propanol; 7.5 mg/kg; oral; Female; F344; remark: listed apart in the source
# [24] = system: Rat; conditions: dosed: 1-Chloro-2-propanol, 7.5 mg/kg, oral, Male, F344; remark: listed apart in the source
# [25] = system: Rat; conditions: dosed: 1-Chloro-2-propanol, 15 mg/kg, oral, Female, F344; remark: listed apart in the source
# [26] = system: Rat; conditions: dosed: 1-Chloro-2-propanol, 7.5 mg/kg, oral, Male, F344; remark: listed apart in the source
# [27] = system: Rat; conditions: dosed: 1-Chloro-2-propanol, 7.5 mg/kg, oral, Male, F344; remark: listed apart in the source
# [28] = system: Rat; conditions: dosed: 1-Chloro-2-propanol, 15 mg/kg, oral, Male, F344; remark: listed apart in the source
# [29] = system: Rat; conditions: dosed: 1-Chloro-2-propanol, 15 mg/kg, oral, Male, F344; remark: listed apart in the source
# [30] = system: Rat; conditions: 40 min; dosed: 1-Chloro-2-propanol; 15 mg/kg; oral; Male; F344
structure (smiles),measurement,setting,value
CC(O)CCl (stereo not drawn) [1-Chloro-2-propanol],concentration in plasma,[1]; 10 min,900 ng/mL
same,concentration in plasma,[1]; 1 h,393 ng/mL
same,concentration in plasma,[2]; 0.5 h,4680 ng/mL
same,concentration in plasma,[2]; 2.5 h,71 ng/mL
same,concentration in plasma,"[3]; 5 min, 7.5 mg/kg, Female, F344",1920 ng/mL
same,concentration in plasma,"[3]; 5 min, 7.5 mg/kg, Male, F344",1660 ng/mL
same,concentration in plasma,"[3]; 5 min, 15 mg/kg, Female, F344",3360 ng/mL
same,concentration in plasma,"[3]; 5 min, 15 mg/kg, Male, F344",1700 ng/mL
same,concentration in plasma,"[3]; 10 min, 7.5 mg/kg, Female, F344",1890 ng/mL
same,concentration in plasma,"[3]; 10 min, 7.5 mg/kg, Male, F344",1830 ng/mL
same,concentration in plasma,"[3]; 10 min, 15 mg/kg, Female, F344",3860 ng/mL
same,concentration in plasma,"[3]; 10 min, 15 mg/kg, Male, F344",5370 ng/mL
same,concentration in plasma,"[3]; 20 min, 7.5 mg/kg, Female, F344",1660 ng/mL
same,concentration in plasma,"[3]; 20 min, 7.5 mg/kg, Male, F344",1030 ng/mL
same,concentration in plasma,"[3]; 20 min, 15 mg/kg, Female, F344",3180 ng/mL
same,concentration in plasma,"[3]; 20 min, 15 mg/kg, Female, Harlan Sprague-Dawley",3020 ng/mL
same,concentration in plasma,"[3]; 0.5 h, 7.5 mg/kg, Female, F344",479 ng/mL
same,concentration in plasma,"[3]; 0.5 h, 7.5 mg/kg, Male, F344",740 ng/mL
same,concentration in plasma,"[3]; 0.5 h, 15 mg/kg, Female, Harlan Sprague-Dawley",3270 ng/mL
same,concentration in plasma,"[3]; 40 min, 7.5 mg/kg, Female, F344",534 ng/mL
same,concentration in plasma,"[3]; 40 min, 7.5 mg/kg, Male, F344",638 ng/mL
same,concentration in plasma,"[3]; 40 min, 15 mg/kg, Female, Harlan Sprague-Dawley",4110 ng/mL
same,concentration in plasma,"[3]; 40 min, 15 mg/kg, Male, F344",3300 ng/mL
same,concentration in plasma,"[3]; 1 h, 7.5 mg/kg, Female, F344",138 ng/mL
same,concentration in plasma,"[3]; 1 h, 7.5 mg/kg, Male, F344",334 ng/mL
same,concentration in plasma,"[3]; 1 h, 15 mg/kg, Female, F344",677 ng/mL
same,concentration in plasma,"[3]; 1 h, 15 mg/kg, Male, F344",920 ng/mL
same,concentration in plasma,"[3]; 1.5 h, 7.5 mg/kg, Male, F344",117 ng/mL
same,concentration in plasma,"[3]; 1.5 h, 15 mg/kg, Female, Harlan Sprague-Dawley",768 ng/mL
same,concentration in plasma,"[3]; 2 h, 7.5 mg/kg, Male, F344",70 ng/mL
same,concentration in plasma,"[3]; 2 h, 15 mg/kg, Female, F344",127 ng/mL
same,concentration in plasma,"[3]; 2 h, 15 mg/kg, Male, F344",159 ng/mL
same,concentration in plasma,"[3]; 2.5 h, 15 mg/kg, Female, Harlan Sprague-Dawley",69 ng/mL
same,concentration in plasma,"[3]; 3 h, 15 mg/kg, Female, Harlan Sprague-Dawley",59 ng/mL
same,concentration in plasma,"[3]; 3 h, 15 mg/kg, Male, F344",107 ng/mL
same,concentration in plasma,[4]; 10 min,1260 ng/mL
same,concentration in plasma,[4]; 1 h,133 ng/mL
same,concentration in plasma,[5]; 20 min,6300 ng/mL
same,concentration in plasma,[5]; 1.5 h,354 ng/mL
same,concentration in plasma,[6]; 5 min,1170 ng/mL
same,concentration in plasma,[6]; 40 min,213 ng/mL
same,concentration in plasma,[7]; 5 min,4660 ng/mL
same,concentration in plasma,[7]; 1 h,897 ng/mL
same,concentration in plasma,[8],810 ng/mL
same,concentration in plasma,[9]; 0.5 h,1040 ng/mL
same,concentration in plasma,[9]; 2 h,75 ng/mL
same,concentration in plasma,[10],830 ng/mL
same,concentration in plasma,[11]; 20 min,4590 ng/mL
same,concentration in plasma,[11]; 1.5 h,780 ng/mL
same,concentration in plasma,[12]; 5 min,6120 ng/mL
same,concentration in plasma,[12]; 1 h,940 ng/mL
same,concentration in plasma,[13],730 ng/mL
same,concentration in plasma,[14]; 10 min,6460 ng/mL
same,concentration in plasma,[14]; 2 h,203 ng/mL
same,concentration in plasma,[15]; 20 min,740 ng/mL
same,concentration in plasma,[15]; 1.5 h,81 ng/mL
same,concentration in plasma,[16]; 0.5 h,3970 ng/mL
same,concentration in plasma,[16]; 2.5 h,79 ng/mL
same,concentration in plasma,[17]; 5 min,2360 ng/mL
same,concentration in plasma,[17]; 40 min,720 ng/mL
same,concentration in plasma,[18]; 20 min,1270 ng/mL
same,concentration in plasma,[18]; 1.5 h,108 ng/mL
same,concentration in plasma,[19]; 10 min,6200 ng/mL
same,concentration in plasma,[19]; 2 h,72 ng/mL
same,concentration in plasma,[20],1450 ng/mL
same,concentration in plasma,[21]; 10 min,4730 ng/mL
same,concentration in plasma,[21]; 2 h,112 ng/mL
same,concentration in plasma,[22]; 5 min,1600 ng/mL
same,concentration in plasma,[22]; 40 min,750 ng/mL
same,concentration in plasma,[23],740 ng/mL
same,concentration in plasma,[24]; 0.5 h,1360 ng/mL
same,concentration in plasma,[24]; 2 h,56 ng/mL
same,concentration in plasma,[25]; 5 min,6880 ng/mL
same,concentration in plasma,[25]; 1 h,630 ng/mL
same,concentration in plasma,[26]; 10 min,1400 ng/mL
same,concentration in plasma,[26]; 1 h,195 ng/mL
same,concentration in plasma,[27]; 20 min,960 ng/mL
same,concentration in plasma,[27]; 1.5 h,144 ng/mL
same,concentration in plasma,[28]; 10 min,6070 ng/mL
same,concentration in plasma,[28]; 2 h,131 ng/mL
same,concentration in plasma,[29]; 5 min,3020 ng/mL
same,concentration in plasma,[29]; 1 h,1020 ng/mL
same,concentration in plasma,[30],2740 ng/mL
